From US20250223303A1, “TRICYCLIC BORONIC ACID DERIVATIVE, AND PREPARATION METHOD THEREFOR AND APPLICATION THEREOF” (priority 2021, published 2025)

Legend:
[1] = tested on: Klebsiella pneumoniae ATCC BAA-1705; experiment: MIC test of compounds in combination with antibiotics, Klebsiella pneumoniae ATCC BAA-1705; settings: for MIC of biapenem in combination with compound, Klebsiella pneumoniae ATCC BAA-1705 KPC-2: Biapenem + compound (8 μg/mL); for MIC of meropenem in combination with compound, Klebsiella pneumoniae ATCC BAA-1705 KPC-2: Meropenem + compound (8 μg/mL)
Experimental: (§1) Strain preparation: the strains to be tested were streaked from glycerol tube at −80° C. onto Mueller Hinton II Agar plates. The plates were then placed in a 37° C. incubator and cultured for 18-24 hours.
(§2) Media preparation: CAMHB (Mueller Hinton II Broth): 22 g of powder was dissolved in 1 L of purified water and sterilized at 121° C. for 10 min for use. Saline: 8.5 g NaCl was dissolved in 1 L of pure water and sterilized at 121° C. for 30 min for use.
(§3) Preparation of compound and antibiotic stock solutions: the compound and antibiotic were dissolved in DMSO or water to 12.8 mg/mL.
(§4) 2-Fold gradient dilution of antibiotics: 300 μL of CAMHVIB medium was added to columns 2-12 of a 96-deep well plate. In column 1, 24 μL of antibiotic stock solution and 576 µL of CAMHB medium were added and mixed well, with a concentration of 512 μg/mL. 300 µL of antibiotic solution was transferred from the column 1 to the second column and mixed well. The process was repeated until column 11, and the column 12 was a blank control.
(§5) Dilution of combined compounds: the compound was diluted 400-fold to 32 μg/ml with CAMHB medium.
(§6) Working solution aliquoting: 25 μL of antibiotics was aliquoted into the 96-U bottom plate with a pipette, and 25 μL of combined compound was added to each well. If antibiotics were used alone, 25 μL of CAMHB medium was added.
(§7) Inoculum solution preparation: 5-6 single colonies were selected from the plate and suspended in normal saline. The bacterial suspension was adjusted to 0.2 (i.e., 0.5 McFarland turbidity, with a bacterial concentration was about 1 to 2×10^8 CFU/mL) with a turbidity meter. The bacterial suspension was diluted 100-fold with CAMHB medium for later use.
(§8) Inoculation: 50 μL of inoculum solution was transferred to the above 50 μL compound plate with a pipette.
(§9) Culture: The 96-U bottom plate was placed in an incubator at 37° C. for 18 to 20 h.
(§10) After the incubation, bacterial growth was visually observed, and the test plate was photographed and recorded.

[2] = tested on: Klebsiella pneumoniae ARLG 1196; experiment: MIC test of compounds in combination with antibiotics, Klebsiella pneumoniae ARLG 1196; settings: for MIC of biapenem in combination with compound, Klebsiella pneumoniae ARLG-1196 CTM-1 group, SHV, NDM, TEM: Biapenem + compound (8 μg/mL); for MIC of meropenem in combination with compound, Klebsiella pneumoniae ARLG-1196 CTM-1 group, SHV, NDM, TEM: Meropenem + compound (8 μg/mL)
Experimental: as §1, §2, §3, §4, §5, §6, §7, §8, §9, §10

[3] = tested on: Acinetobacter baumannii ARLG-1809 OXA-23; experiment: MIC test of compounds in combination with antibiotics, Acinetobacter baumannii ARLG-1809; settings: for MIC of biapenem in combination with compound, Acinetobacter baumannii ARLG-1809 OXA-23: Biapenem + compound (8 μg/mL); for MIC of meropenem in combination with compound, Acinetobacter baumannii ARLG-1809 OXA-23: Meropenem + compound (8 μg/mL)
[4] = tested on: Klebsiella pneumoniae ATCC BAA-2470; experiment: MIC test of compounds in combination with antibiotics, Klebsiella pneumoniae ATCC BAA-2470; settings: for MIC of biapenem in combination with compound, Klebsiella pneumoniae ATCC BAA-2470 NDM-1: Biapenem + compound (8 μg/mL); for MIC of meropenem in combination with compound, Klebsiella pneumoniae ATCC BAA-2470 NDM-1: Meropenem + compound (8 μg/mL)
[5] = tested on: Acinetobacter baumannii ARLG-1791 OXA-23; experiment: MIC test of compounds in combination with antibiotics, Acinetobacter baumannii ARLG-1791; settings: for MIC of biapenem in combination with compound, Acinetobacter baumannii ARLG-1791 OXA-23: Biapenem + compound (8 μg/mL); for MIC of meropenem in combination with compound, Acinetobacter baumannii ARLG-1791 OXA-23: Meropenem + compound (8 μg/mL)
Experimental: as §4, §5, §6, §7, §8, §9

[6] = tested on: Acinetobacter baumannii WX-AB005; experiment: MIC test of compounds in combination with antibiotics, Acinetobacter baumannii WX-AB005; settings: for MIC of biapenem in combination with compound, Acinetobacter baumannii WX-AB005: Biapenem + compound (8 μg/mL); for MIC of meropenem in combination with compound, Acinetobacter baumannii WX-AB005: Meropenem + compound (8 μg/mL)
Experimental: as §4, §5, §6, §7, §8, §9

[7] = tested on: Acinetobacter baumannii ARLG-1852 OXA-23; experiment: MIC test of compounds in combination with antibiotics, Acinetobacter baumannii ARLG-1852; settings: for MIC of biapenem in combination with compound, Acinetobacter baumannii ARLG-1852 OXA-23: Biapenem + compound (8 μg/mL); for MIC of meropenem in combination with compound, Acinetobacter baumannii ARLG-1852 OXA-23: Meropenem + compound (8 μg/mL)
[8] = tested on: Escherichia coli ARLG 2829; experiment: MIC test of compounds in combination with antibiotics, Escherichia coli ARLG 2829; settings: for MIC of biapenem in combination with compound, Escherichia coli ARLG-2829 NDM-5, OXA-1: Biapenem + compound (8 μg/mL); for MIC of meropenem in combination with compound, Escherichia coli ARLG-2829 NDM-5, OXA-1: Meropenem + compound (8 μg/mL)
Experimental: as §1, §2, §3, §4, §5, §6, §7, §8, §9, §10

[9] = tested on: Acinetobacter baumannii ARLG-1853 OXA-23; experiment: MIC test of compounds in combination with antibiotics, Acinetobacter baumannii ARLG-1853; settings: for MIC of biapenem in combination with compound, Acinetobacter baumannii ARLG-1853 OXA-23: Biapenem + compound (8 μg/mL); for MIC of meropenem in combination with compound, Acinetobacter baumannii ARLG-1853 OXA-23: Meropenem + compound (8 μg/mL)
[10] = tested on: Acinetobacter baumannii WX-AB013; experiment: MIC test of compounds in combination with antibiotics, Acinetobacter baumannii WX-AB013; settings: for MIC of biapenem in combination with compound, Acinetobacter baumannii WX-AB013: Biapenem + compound (8 μg/mL); for MIC of meropenem in combination with compound, Acinetobacter baumannii WX-AB013: Meropenem + compound (8 μg/mL)
Experimental: as §4, §5, §6, §7, §8, §9

SMILES	MIC of biapenem in combination with compound, Klebsiella pneumoniae ATCC BAA-1705 KPC-2 [1] [µg/mL]	MIC of meropenem in combination with compound, Klebsiella pneumoniae ATCC BAA-1705 KPC-2 [1] [µg/mL]	MIC of biapenem in combination with compound, Klebsiella pneumoniae ARLG-1196 CTM-1 group, SHV, NDM, TEM [2] [µg/mL]	MIC of meropenem in combination with compound, Klebsiella pneumoniae ARLG-1196 CTM-1 group, SHV, NDM, TEM [2] [µg/mL]	MIC of biapenem in combination with compound, Acinetobacter baumannii ARLG-1809 OXA-23 [3] [µg/mL]	MIC of meropenem in combination with compound, Acinetobacter baumannii ARLG-1809 OXA-23 [3] [µg/mL]	MIC of biapenem in combination with compound, Klebsiella pneumoniae ATCC BAA-2470 NDM-1 [4] [µg/mL]	MIC of meropenem in combination with compound, Klebsiella pneumoniae ATCC BAA-2470 NDM-1 [4] [µg/mL]	MIC of biapenem in combination with compound, Acinetobacter baumannii ARLG-1791 OXA-23 [5] [µg/mL]	MIC of meropenem in combination with compound, Acinetobacter baumannii ARLG-1791 OXA-23 [5] [µg/mL]	MIC of biapenem in combination with compound, Acinetobacter baumannii WX-AB005 [6] [µg/mL]	MIC of meropenem in combination with compound, Acinetobacter baumannii WX-AB005 [6] [µg/mL]	MIC of biapenem in combination with compound, Acinetobacter baumannii ARLG-1852 OXA-23 [7] [µg/mL]	MIC of meropenem in combination with compound, Acinetobacter baumannii ARLG-1852 OXA-23 [7] [µg/mL]	MIC of biapenem in combination with compound, Escherichia coli ARLG-2829 NDM-5, OXA-1 [8] [µg/mL]	MIC of meropenem in combination with compound, Escherichia coli ARLG-2829 NDM-5, OXA-1 [8] [µg/mL]	MIC of biapenem in combination with compound, Acinetobacter baumannii ARLG-1853 OXA-23 [9] [µg/mL]	MIC of meropenem in combination with compound, Acinetobacter baumannii ARLG-1853 OXA-23 [9] [µg/mL]	MIC of biapenem in combination with compound, Acinetobacter baumannii WX-AB013 [10] [µg/mL]	MIC of meropenem in combination with compound, Acinetobacter baumannii WX-AB013 [10] [µg/mL]
C[C@H](Sc1ccc2c(c1C(=O)O)OB(O)[C@@H]1C[C@H]21)C1CN(C)C1 [Compound 20-a]	0.5	≤0.125	≤0.125	2	0.5	2	≤0.125	4	0.25	2	2	4	0.25	2	0.25	16	0.25	2	0.5	2
CC(Sc1ccc2c(c1C(=O)O)OB(O)C1CC21)C1CC1 (single isomer, unassigned) [Compound 16-c]	1	8	1	2	2	4	0.5	8	1	8	4	8	1	4	≤0.125	4	1	4	2	4
CC(Sc1ccc2c(c1C(=O)O)OB(O)C1CC21)C1CC1 (single isomer, unassigned) [Compound 16-a]	0.5	4	0.5	1	1	2	1	2	0.5	4	2	8	0.25	2	0.25	2	0.5	2	0.5	4
O=C(O)c1c(SCCN2CCOCC2)ccc2c1OB(O)C1CC21 (single isomer, unassigned) [Compound 15-b]	≤0.125	≤0.125	≤0.125	≤0.125	1	2	≤0.125	1	0.5	4	2	4	0.25	2	0.25	1	0.25	4	1	4
C[C@H](Sc1ccc2c(c1C(=O)O)OB(O)[C@@H]1C[C@H]21)[C@@H]1CCCO1 [Compound 18-a]	0.5	1	≤0.125	2	2	4	0.5	8	0.5	8	4	8	0.5	2	≤0.125	2	0.5	2	0.5	4
